Laboratory results: patent US9995734B2, “Human T cell line assay for evaluating the immunologic identity of glatiramer acetate preparations” (Mylan Inc., priority 2013, dated 2018)

Legend:
Format in all cases: cell-based, human
Donor 3 COP T-Cell Lines = experiment: ATP proliferation assay (CellTiter Glo), Donor 3 COP T-cell lines, incl. reactivity to non-canonical GA peptides; conditions: for Non-Canonical Peptide Non-Reactivity: proliferation <2 times no antigen control
[1] = test system: Donor 1 GMA Expanded T-Cell Lines (222-AG11, 222-AG12, 222-BA11, 222-BC11); experiment: ATP proliferation assay (CellTiter Glo), Donor 1 GMA expanded T-cell lines, incl. reactivity to non-canonical GA peptides; conditions: for Proliferation (luminescent ATP assay), Mean: T-cell line 222-AG12, autologous B-LCL
Method: Proliferation was evaluated by measuring ATP content using a luminescent method (CellTiter Glo Luminescent Cell Viability Assay, Promega, Madison, Wis., cat. #G7571) or by measuring BrdU uptake by ELISA (Millipore cat. #2752), in both cases following kit instructions. A split well format was used. Cells in each well were resuspended and 65 μl transferred to the wells of each of two new U-bottom 96-well plates, to generate the replicate plates. For the initial screening, the original 96-well plate received mitomycin-treated autologous PBMC as APC plus 10 μg/mL antigen (GA). A first replicate plate received 100 μl., mitomycin-treated PBMC alone (2×10^5), and no antigen, and a second replicate plate received 100 μL mitomycin-treated PBMC plus GA at a final concentration of 10 μg/mL. Therefore, all three plates received autologous APC (PBMC) treated with mitomycin C to prevent cell division. […] The latter two plates were incubated for 3 days at 37° C., 6% CO2 before adding CellTiter Glo or BrdU and measuring signal. IL-2 was added at 10 U/mL to the original 96-well plate for expansion on Day 17. For subsequent screenings, mitomycin-treated EBV-transformed autologous B-LCL (2×10^5 to 5×10^5 cells/mL) were used as APC.
On Day 24, cells from the wells corresponding to the eight presumptive GA-specific human T-cell lines listed in Table 4 were transferred to a 24-well plate and expanded by stimulating with 10 μg/mL GMA and mitomycin-treated autologous PBMC as APC (3×10^6 per well, i.e., 1.5×10^6/mL). On Day 32 four of the eight lines, 222-BA11, 222-BC11, 222-AG11, and 222-AG12, were stimulated with 0, 1, 10 and 100 μg/mL GMA and tested in a 96-well plate for a proliferative response to GMA using an ATP assay, again using autologous PBMC as APC (2×10^5 per well, i.e., 1×10^6/mL). […] FIGS. 2A and B show the results of the ATP proliferation assay carried out using 222-AG12, 222-BC11, 222-AG11, and 222-BA11 at Day 35 (control=no antigen). FIGS. 3A-C compare the results of ATP proliferation assays carried out after stimulation with varying concentrations of GMA or Copaxone as indicated, using cell lines 222-BA11, 222-BC11, and 222-AG12.
Donor 1 GMA T-cell line 222-AG12 was assayed for proliferation following stimulation with 0, 1, 10, and 30 μg/mL each of peptides GLT 631, GAT 631, GAT 111, LT 11, GT 11, GL 14, COP, and GMA, at a T-cell concentration of 2×10^5 cells/mL, in the presence of mitomycin C-treated autologous B-LCL. Line 222-AG12 was assayed after 3 rounds of restimulation (4 total stimulations). Proliferation was measured by luminescent ATP assay.

Donor 4 COP T-Cell Lines = experiment: ATP proliferation assay (CellTiter Glo), Donor 4 COP T-cell lines, incl. reactivity to non-canonical GA peptides; conditions: 205-1H11; proliferation <2 times no antigen control

Substance: poly (Glu-Tyr; 1:1) [GT 11]
- Non-Canonical Peptide Non-Reactivity (Donor 3 COP T-Cell Lines; 165-B6C): GT 11
- Non-Canonical Peptide Non-Reactivity (Donor 3 COP T-Cell Lines; 165-B10C): GT 11
- Non-Canonical Peptide Non-Reactivity (Donor 3 COP T-Cell Lines; 165-C4C): GT 11
- Non-Canonical Peptide Non-Reactivity (Donor 3 COP T-Cell Lines; 165-C7C): GT 11
- Non-Canonical Peptide Non-Reactivity (Donor 3 COP T-Cell Lines; 165-D2C): GT 11
- Non-Canonical Peptide Non-Reactivity (Donor 3 COP T-Cell Lines; 165-D3C): GT 11
- Non-Canonical Peptide Non-Reactivity (Donor 3 COP T-Cell Lines; 165-F3C): GT 11
- Non-Canonical Peptide Non-Reactivity (Donor 3 COP T-Cell Lines; 165-F6C): GT 11
- Non-Canonical Peptide Non-Reactivity (Donor 3 COP T-Cell Lines; 165-U3C (so in the source)): GT 11
- Proliferation (luminescent ATP assay), Mean (Donor 3 COP T-Cell Lines; T-cell line 165-C4C, 1 μg/mL antigen, Day 66 of culture, 0 μg/mL 1881): 2664
- Proliferation (luminescent ATP assay), Mean (Donor 3 COP T-Cell Lines; T-cell line 165-C4C, 3 μg/mL antigen, Day 66 of culture, 0 μg/mL 1881): 2804
- Proliferation (luminescent ATP assay), Mean (Donor 3 COP T-Cell Lines; T-cell line 165-C4C, 10 μg/mL antigen, Day 66 of culture, 0 μg/mL 1881): 2311
- Proliferation (luminescent ATP assay), Mean (Donor 3 COP T-Cell Lines; T-cell line 165-C7C, 1.25 μg/mL antigen, autologous B-LCL): 346 RLU
- Proliferation (luminescent ATP assay), Mean (Donor 3 COP T-Cell Lines; T-cell line 165-C7C, 2.5 μg/mL antigen, autologous B-LCL): 265 RLU
- Proliferation (luminescent ATP assay), Mean (Donor 3 COP T-Cell Lines; T-cell line 165-C7C, 5 μg/mL antigen, autologous B-LCL): 255 RLU
- Proliferation (luminescent ATP assay), Mean (Donor 3 COP T-Cell Lines; T-cell line 165-C7C, 10 μg/mL antigen, autologous B-LCL): 234 RLU
- Proliferation (luminescent ATP assay), Mean (Donor 3 COP T-Cell Lines; T-cell line 165-F3C, 1 μg/mL antigen, Day 77 of culture, 0 μg/mL 1563): 2108
- Proliferation (luminescent ATP assay), Mean (Donor 3 COP T-Cell Lines; T-cell line 165-F3C, 3 μg/mL antigen, Day 77 of culture, 0 μg/mL 1563): 2152
- Proliferation (luminescent ATP assay), Mean (Donor 3 COP T-Cell Lines; T-cell line 165-F3C, 10 μg/mL antigen, Day 77 of culture, 0 μg/mL 1563): 1652
- Proliferation (luminescent ATP assay), Mean (Donor 3 COP T-Cell Lines; T-cell line 165-F6C, 1.25 μg/mL antigen, Day 76 of culture, No Antigen value 517): 406
- Proliferation (luminescent ATP assay), Mean (Donor 3 COP T-Cell Lines; T-cell line 165-F6C, 2.5 μg/mL antigen, Day 76 of culture, No Antigen value 517): 426
- Proliferation (luminescent ATP assay), Mean (Donor 3 COP T-Cell Lines; T-cell line 165-F6C, 5 μg/mL antigen, Day 76 of culture, No Antigen value 517): 388
- Proliferation (luminescent ATP assay), Mean (Donor 3 COP T-Cell Lines; T-cell line 165-F6C, 10 μg/mL antigen, Day 76 of culture, No Antigen value 517): 303
- Non-Canonical Peptide Non-Reactivity ([1]; 222-AG12, proliferation <2 times no antigen control): GT 11
- Nonreactive T-Cell Line ([1]; Donor 1 GMA expanded lines, stimulation with the non-canonical GA peptide): 222-AG12 (Donor 1)
- Proliferation (luminescent ATP assay), Mean ([1]; 1 ug/mL antigen): 2650 RLU
- Proliferation (luminescent ATP assay), Mean ([1]; 10 ug/mL antigen): 3285 RLU
- Proliferation (luminescent ATP assay), Mean ([1]; 30 ug/mL antigen): 2231 RLU
- Non-Canonical Peptide Non-Reactivity (Donor 4 COP T-Cell Lines): GT 11
